Results: patent US20140127159A1, “HCV Combination Therapy” (Stella ApS, priority 2011, published 2014)
Several values for one entry are separate records, joined by “and”; a condition that tells them apart may be missing. Identical values can stand only once. Entries after “also recorded” stand apart in the source; their conditions may differ. Like-named read-outs stand apart in the source and are kept apart here.

How the values were obtained:
[1] = test system: HCV genotype 1b replicon NS3 R155K; experiment: Transient transfection replicon assay in Huh 7 cells, NS3 R155K; assay type: cell-based; conditions: EC50 mutant / EC50 wild-type; mean of two experiments
Method: (§2) Huh 7 cells were transfected with either the wild-type or the mutant RNA constructs by electroporation. Luciferase activity was measured 72 hours after compound treatment and EC50 values determined from dose-response curves. Fold resistance was expressed as the ratio of the EC50 for mutant HCV replicon to the EC50 for wild-type HCV replicon.
(§3) Huh 7 cells were transfected with either the wild type or the mutant RNA constructs by electroporation. Luciferase activity was measured 72 hours after compound treatment and EC50 values determined from dose-response curves. Fold resistance was expressed as the ratio of the EC50 for mutant HCV replicon to the EC50 for wild-type HCV replicon. Results are expressed as the mean of two individual experiments.

[2] = test system: HCV genotype 1b replicon NS5B S282T; experiment: Transient transfection replicon assay in Huh 7 cells, NS5B S282T; assay type: cell-based; conditions: EC50 mutant / EC50 wild-type; mean of two experiments
[3] = test system: Huh-luc/neo-ET HCV genotype Ib replicon cells; assay type: cell-based; conditions: 28 days culture under G418 selective pressure, crystal violet
Method: Cell culture and Assay setup: The reporter cell line Huh-luc/neo-ET was obtained and prepare as described previously. Cells were plated into 10 cm tissue culture dishes at a density of 3×10^5 cells per plate in culture medium containing 250 μg/ml G418 and incubated for 24 hours at 37° C. in an environment of 5% CO2. Following the 24 hour incubation, dilutions of SPC3649, SPC4729, or telaprevir were prepared in cell culture medium (as above) with 750 μg/ml G418. Each of the dilutions was added to duplicate plates and the plates were incubated at 37° C. in an environment of 5% CO^2. Two additional plates received cell culture medium with 750 μg/ml G418 as a no-treatment control. […] The final concentration of SPC4729 was 10.0 μM. […] Following 28 days of passage, one set of dishes was stained with crystal violet and the other set of plates was utilized for expansion and establishment of resistant cell culture stocks.
Huh-luc/neo-ET HCY genotype Ib replicon cells were cultured under selective pressure in the presence of 750 μg/mL G4 I8 with and without four independent fixed concentrations of SPC3649 anti-miR oligonucleotide, or telaprevir, or one concentration of scrambled oligonucleotide SPC4729 for 28 days in tissue culture plates. Duplicate tissue culture dishes were established and maintained for each culture condition. […]

Huh-luc/neo-ET = test system: Huh-luc/neo-ET
Method: (§1) The anti-viral efficacy and cellular toxicity of non-transfected antimiR oligonucleotide in combination with approved and experimental anti-HCV therapeutics (boceprevir or telepravir, was determined in the reporter cell line Huh-luc/neo-ET. This cell line harbors the persistently replicating I389luc-ubi-neo/NS3-3′/ET replicon containing the firefly luciferase gene-ubiquitin-neomycin phosphotransferase fusion protein and EMCV IRES driven NS3-5B HCV coding sequences containing the ET tissue culture adaptive mutations (E1202G, T1208I, and K1846T). Eight dilutions of non-transfected antimiR oligonucleotide (bracketing the calculated EC50) were evaluated in triplicate on duplicate sets of three plates with five dilutions of each of the control compounds (bracketing the calculated EC50). One set of plates was used for the determination of cellular toxicity and the other set of plates is used for the determination of anti-viral efficacy. The efficacy and toxicity results was quantified with firefly luciferase activity and XTT dye reduction, respectively, and the results of the assay is imported into the Prichard and Shipman MacSynergy II software program. The MacSynery II analysis includes calculation of the dose response of the two (or more) compounds when used alone followed by calculation of the expected additive level of antiviral inhibition or toxicity when the compounds are used together based on the individual dose response curves. The expected level of activity at each of the concentration data points is compared to the experimentally determined antiviral activity in the assay. The expected activity was subtracted from the realized activity, yielding a negative, zero or positive value.
The reporter cell line Huh-luc/neo-ET was obtained from Dr. Ralf Bartenschlager (Department of Molecular Virology, Hygiene Institute, University of Heidelberg, Germany) by ImQuest BioSciences. This cell line harbors the persistently replicating 1389luc-ubi-neo/NS3-3′IET replicon containing the firefly luciferase gene-ubiquitinneomycin phosphotransferase fusion protein and EMCV IRES driven NS3-5B HCV coding sequences containing the ET tissue culture adaptive mutations (E 1202G, T12081, and KI846T). A stock culture of the Huh-luc/neo-ET was expanded by culture in DMEM supplemented with 10% FBS, 2 mM glutamine, penicillin (100 IU/mL)/streptomycin (100 f.Ig/mL) and IX nonessential amino acids plus I mg/ml G418. Prior to plating, the cells were split 1:4 and cultured for two passages in the same medium plus 250 f.Ig/mL G418. The cells were treated with trypsin and enumerated by staining with trypan blue and seeded into 96-well tissue culture plates at a cell culture density 5.0×10^3 cells per well in a volume of 85 f.IL per well and incubated at […] in an environment of 5% CO2 for 24 hours. Six plates were established for the determination of combination efficacy (EC50) and cytotoxicity (TC50) for each of the compound combinations (three plates each for efficacy and toxicity). […] Following incubation, the plates were assessed for anti-HCV activity by measurement of luciferase reporter activity and cellular cytotoxicity by XTT staining.

[4] = test system: HCV genotype Ib replicon in Huh-luc/neoET cells; assay type: cell-based; conditions: for Efficacy, Antagonism vol: in combination with miravirsen (SPC3649), 95% confidence interval, median (≧3 experiments) or individual values
Method: as §1
This example was based on an in vitro evaluation of SPC3649 (miravirsen) in combination with anti-HCV drugs and experimental compounds. […] The combination antiviral assays were performed using the reporter cell line Huh-luc/neo-ET, which contains a bicistronic HCV genotype Ib replicon. Combination data were analyzed using MacSynergy II software at the 95%, confidence interval. The in vitro combination assays were designed to define the antiviral interaction of the two compounds and to determine if their interaction was synergistic or antagonistic.
The reporter cell line Huh-luc/neo-ET was obtained from Dr. Ralf Bartenschlager (Department of Molecular Virology, Hygiene Institute, University of Heidelberg, Germany) by ImQuest BioSciences. This cell line harbors the persistently replicating 1389luc-ubi-neo/NS3-3′IET replicon containing the firefly luciferase gene-ubiquitinneomycin phosphotransferase fusion protein and EMCV IRES driven NS3-5B HCV coding sequences containing the ET tissue culture adaptive mutations (E 1202G, T12081, and KI846T). […]

[5] = test system: HCV genotype 1b replicon NS5A Y93H; experiment: Transient transfection replicon assay in Huh 7 cells, NS5A Y93H; assay type: cell-based; conditions: EC50 mutant / EC50 wild-type; mean of two experiments
Method: as §2, §3

[6] = test system: HCV genotype 1b replicon NS5B M423I; experiment: Transient transfection replicon assay in Huh 7 cells, NS5B M423I; assay type: cell-based; conditions: EC50 mutant / EC50 wild-type; mean of two experiments
Method: as §2, §3

all HCV genotypes = experiment: In vitro activity against HCV genotypes; assay type: cell-based
HCV genotype 1 = experiment: Phase 2a clinical trial, miravirsen monotherapy; assay type: in vivo, patients; conditions: for mean of the maximum HCV RNA decline from baseline: 5 weekly doses subcutaneously over 29 days
Method: Thirty-six treatment-naïve chronic HCV genotype 1 infected patients were enrolled into 3 sequential dosing cohorts and received 5 weekly doses of miravirsen 3, 5, or 7 mg/kg (n=27) or placebo (n=9) subcutaneously over 29 days and were followed up until week 18.

[7] = test system: HCV genotype 1b replicon NS3 A156T; experiment: Transient transfection replicon assay in Huh 7 cells, NS3 A156T; assay type: cell-based; conditions: EC50 mutant / EC50 wild-type; mean of two experiments
Method: as §2, §3

Compound | Fold Resistance NS3 R155K [1] [fold] | Fold Resistance NS5B S282T [2] [fold] | Efficacy, Antagonism vol [4] | Fold Resistance NS5A Y93H [5] [fold] | Fold Resistance NS5B M423I [6] [fold] | Fold Resistance NS3 A156T [7] [fold] | Cytotoxicity, Synergy vol (Huh-luc/neo-ET; human) | also measured
CCC[C@H](NC(=O)[C@@H]1[C@H]2CCC[C@H]2CN1C(=O)[C@@H](NC(=O)[C@@H](NC(=O)c1cnccn1)C1CCCCC1)C(C)(C)C)C(=O)C(=O)NC1CC1 [Telaprevir, (1S,3aR,6aS)-2-[(2S)-2-[[(2S)-2-Cyclohexyl-2-(pyrazine-2-carbonylamino)acetyl]amino]-3,3-dimethylbutanoyl]-N-[(3S)-1-(cyclopropylamino)-1,2-dioxohexan-3-yl]-3,3a,4,5,6,6a-hexahydro-1H-cyclopenta[c]pyrrole-1-carboxamide] | 4.6 | 1.0 | 0/−3.2 (±3.08/6.89) μM^2% | – | – | – | – | distinct individual resistant clonal populations [3]: production of distinct individual resistant clonal populations; Cytotoxicity, Antagonism vol (Huh-luc/neo-ET; in combination with miravirsen (SPC3649), 95% confidence interval): 0/−5.05 μM^2%; Cytotoxicity, Antag Vol (Huh-luc/neo-ET; in combination with ribavirin, 95% confidence level): 0.00/−50.9 μM^2%; Efficacy, Antag Vol ([4]; in combination with ribavirin, 95% confidence level, individual values): 37.5/22.6; μM^2%
5′-^mCs^ocsAs^otstsGs^oTs^ocsas^mCs^oas^mCs^ots^mCs^omC^o-3′ (CCATTGTCACACTCC; all phosphorothioate, sugars by position and methylation of C not given here; further chemistry not fully specified) [miravirsen] | 1.2 | 1.9 | – | 0.9 | 1.7 | 1.0 | – | distinct individual resistant clonal populations ([3]; listed as SPC3649): failed to produce distinct individual resistant clonal populations; also recorded: distinct individual resistant clonal populations were not produced; efficacy against HCV genotypes in vitro (all HCV genotypes): effective against all HCV genotypes in vitro; mean of the maximum HCV RNA decline from baseline (HCV genotype 1; 3 mg/kg): 1.2 log10 IU/mL; mean of the maximum HCV RNA decline from baseline (HCV genotype 1; 5 mg/kg): 2.9 log10 IU/mL; mean of the maximum HCV RNA decline from baseline (HCV genotype 1; 7 mg/kg): 3.0 log10 IU/mL; safety and tolerability, adverse events (HCV genotype 1; 3, 5 or 7 mg/kg): no dose-limiting adverse events; also recorded: safe, well-tolerated; escape mutations / emergence of viral resistance (HCV genotype 1; HCV genome miR-122 binding sites): no escape mutations were observed; also recorded: not seen
COC(=O)N[C@H](C(=O)N1CCC[C@H]1c1nc(-c2ccc(-c3ccc(-c4c[nH]c([C@@H]5CCCN5C(=O)[C@@H](NC(=O)OC)C(C)C)n4)cc3)cc2)c[nH]1)C(C)C [BMS 790052, Carbamic acid, N,N′-[[1,1′-biphenyl]-4,4′-diylbis[1H-imidazole-5,2-diyl-(2S)-2,1-pyrrolidinediyl[(1S)-1-(1-methylethyl)-2-oxo-2,1-ethanediyl]]]bis-, C,C′-dimethyl ester] | – | – | −24.5 μM^2% and −0.06 μM^2% | 29.9 | – | – | 0/−21.9 μM^2% | Cytotoxicity, Antagonism vol (Huh-luc/neo-ET; human): 0/−21.9 μM^2%
CC(C)(C)C#Cc1cc(N(C(=O)[C@H]2CC[C@H](C)CC2)[C@H]2CC[C@H](O)CC2)c(C(=O)O)s1 [VX-222] | – | – | −34.44 μM^2% | – | 4.4 | – | 0/−28.6; 0/0 μM^2% | –
C[C@@]1(O)[C@H](O)[C@@H](CO)O[C@H]1n1ccc(N)nc1=O [2′-C-Methylcytidine] | 0.8 | – | – | 1.0 | 1.0 | 0.9 | – | –
